Assays:
Assay type in all cases: cell-based, human
DBT, ATP5F1, SLC25A4 = experiment: Quantitative immunostaining of upregulated metabolic proteins; conditions: hPSC-CMs from pI:C-treated vs untreated progenitors
Description: For internal antigens, cells were rinsed of media two times in PBS, fixed for 10 minutes in 4% paraformaldehyde at RT, rinsed three times again in PBS, then blocked for 1 hour at room temperature (RT) in Licor blocking buffer containing 0.2% Triton x-100 (Sigma). Blocking solution was aspirated and antibodies added overnight at 4° C. in fresh blocking/permeabilization solution. Antibodies used were mouse cardiac troponin T (Thermo Fisher Scientific, 1:200), rabbit WT1 (Abcam 1:200), mouse smooth muscle myosin heavy chain (Abcam, 1:200), goat Jag1 c-terminal domain (1:200 Abcam), MMP1 (Abcam, 1:200), mouse cardiac actin (Sigma, 1:200), rabbit SLC25A4 (Proteintech, 1:100), rabbit DBT (Proteintech, 1:100), rabbit ATP5F1 (Proteintech, 1:100), rabbit Irx4 (Abcam, 1:200), goat nkx2.5 (Santa Cruz, 1:50), mouse connexin 40 (Thermo Fisher Scientific, 1:200), and fibroblast-specific protein (Abcam, 1:100). After primary and secondary antibodies, cells were rinsed two times in PBS with 0.2% triton x-100. Donkey secondaries conjugated to Alexa Fluor dyes were used at 1:1000 and incubated at RT for 1 h. DAPI or Hoechst was used to visualize nuclei. Cells were imaged either on an EVOS system in wells (Thermo Fisher Scientific) or a Leica confocal microscope in cover glass or ibidi 8-well microslides. Image J was used to quantify cell area by outer boundaries of cTnT staining.

hPSC-CMs = experiment: Seahorse oxygen consumption rate; conditions: cardiomyocytes from treated vs untreated progenitors
Description: After hPSC-CM dissociation of day 40-70 lactate-purified hPSC-CMs from the H9 cTnT-GFP reporter cell line, 25,000 cells per well were replated into Synthemax®-coated wells of Seahorse XF96 V3 PS cell culture plates (Agilent). Plates were analyzed for basal and maximal oxygen consumption rate with a Seahorse XF cell mito stress kit according to the manufacturer's instructions (Agilent) using concentrations of 1 μM oligomycin, 2 μM FCCP, and 0.5 μM Rotenone/antimycin A. Purity was determined by dissociating seahorse wells after analysis and doing live cell flow cytometry for cTnT-GFP. To directly compare data between plate runs/biological replicates, the fold change between hPSC-CMs from pI:C− and pI:C+ progenitors was computed for each sample's maximal and basal oxygen consumption rate normalized to total protein estimated after cell lysis in EBC buffer. Log2 of the fold changes was tested for significance in a one-sample t test against a null hypothesis of 0.

[1] = tested on: day 5 cardiac progenitors; experiment: Methylcellulose colony-forming assay; conditions: 1% methylcellulose, four days, size >35 μm
Description: Day-5 cardiac progenitors from the 19-9-11 cell line were dissociated as above, but then passed 10 times through a syringe with 18 gauge needle and filtered twice through a 45 μm flow cytometry cell strainer. The cells were then counted and 100,000 cells were then mixed with 2 mL of K20 medium plus 10 μM Y-27632 ROCK-inhibitor (Tocris) containing 1% ES-Cult methylcellulose (Stemcell Technologies) and grown in one 6-well of a corning Ultra Low Attachment plate. ImageJ was used to measure colony diameter four days later and single cells observed the first day and after had diameters less than 35 μm.

[2] = tested on: hPSC-CM sheets from replated progenitors; experiment: Video edge detection / beating analysis of cardiomyocyte sheets
Description: For quantification of spatial regularity and graphical presentation of time averaged beating in microtissue from the H9-cTnT-GFP (FIGS. 9A, C) or 19-9-11 (FIG. 9B) cell lines, .avi video files of low-powered (2.5× magnification) fields were recorded at a resolution of 1268×720 and a frame rate of 20/second. These videos were exported into a series of sequential .tiff files using Adobe Premiere, and then analyzed in MATLAB using previously described coding algorithms (Huebsch et al., 2015). Calculations of beat rate (before and after ivrabradine, […] for 2 hours, Sigma) were performed manually in the 19-9-11 cell line and multifocal patterns in untreated progenitor-derived sheets were represented as the average rate of beating for all foci present in a field.

[3] = tested on: day 5 cardiac progenitors; experiment: Gene ontology / KEGG pathway analysis of pI:C up- and downregulated RNA-seq genes; conditions: pI:C top upregulated GO terms
Description: Day-5 cells from d3-5 untreated, TGFβ-treated, and pI:C-treated progenitors from the 19-9-11 iPS cell line were separately prepared as above for cell dissociation of progenitors from three different wells of each condition (for 9 total sequencing samples) and isolated as described above for RNA for RT-qPCR. rRNA-reduced Illumina TruSeq™ Stranded total RNA libraries were prepared and 1×100 bp single end sequencing was performed. To map and annotate RNA-seg data, STAR and HTSeq were used, respectively (Anders et al., 2015; Dobin and Gingeras, 2015). Annotated transcript counts were further processed with DeSEq2 for differential gene expression analysis (Love et al., 2014). Gene neighborhood analysis was performed with NEST (Jiang et al., 2015).

[4] = KEGG_PATHWAY hsa03030:DNA replication
[5] = KEGG_PATHWAY hsa03430:Mismatch repair
[6] = KEGG_PATHWAY hsa03460:Fanconi anemia pathway
[7] = KEGG_PATHWAY hsa04110:Cell cycle
[8] = KEGG_PATHWAY hsa05034:Alcoholism
[9] = KEGG_PATHWAY hsa05203:Viral carcinogenesis
[10] = KEGG_PATHWAY hsa05322:Systemic lupus erythematosus

## polyinosinic-polycytidylic acid [pI:C]
DBT, ATP5F1, SLC25A4
  expression of DBT, ATP5F1 and SLC25A4: increased expression
hPSC-CMs
  basal oxygen consumption rate: approximately 2 fold
  maximal oxygen consumption rate: approximately 2 fold
[1]
  colony formation: abundant multi-cellular colonies
[2]; primed progenitors
  contraction pattern of cell sheets from dissociated progenitors: highly organized, propagating waves of contraction
[2]; sheets from primed relative to untreated progenitors
  beat angle range: lower range
[3]; [4]
  % (genes in term): 2.3989%
  Count (upregulated genes in term): 18
[3]; [5]
  % (genes in term): 1.0662%
  Count (upregulated genes in term): 8
[3]; [6]
  % (genes in term): 1.3327%
  Count (upregulated genes in term): 10
[3]; [7]
  % (genes in term): 1.9991%
  Count (upregulated genes in term): 15
[3]; [8]
  % (genes in term): 4.6645%
  Count (upregulated genes in term): 35
[3]; [9]
  % (genes in term): 3.1985%
  Count (upregulated genes in term): 24
[3]; KEGG_PATHWAY hsa05218:Melanoma
  % (genes in term): 1.3327%
  Count (upregulated genes in term): 10
[3]; [10]
  % (genes in term): 4.7978%
  Count (upregulated genes in term): 36
